Experimental data reported in paper PMC6792352, “Limited Chemical Structural Diversity Found to Modulate Thyroid Hormone Receptor in the Tox21 Chemical Library” (Environmental Health Perspectives, 2019).
Where a name gives a salt, the structure may show the parent alone.

Assay: in vitro
Conditions: rat, gh3-tre-luc cells, AC50 (uM) modified / 1000

`CCn1cc(C(=O)O)c(=O)c2cc3c(cc21)OCO3` [Oxolinic acid] and `CCC1(c2ccccc2)C(=O)NC(=O)N(C(=O)c2ccccc2)C1=O` (centres unmarked) [Benzobarbital] cannot be ordered by CC50 at 24 h: > 90 µM for the first, > 50 µM for the second.

`Cc1cc(-c2cc(C)c(N)c(C)c2)cc(C)c1N` [3,3',5,5'-Tetramethylbenzidine] and `Cc1cc(C)c(O)c(C)c1` [2,4,6-Trimethylphenol] cannot be ordered by CC50 at 24 h: > 90 µM for the first, > 90 µM for the second.

First: Cc1ccc(S(=O)(=O)NC(=O)NC2CCCCCCC2)cc1 [Glyoctamide]
Second: C=Cc1ccc(S(=O)(=O)O)cc1 [Sodium 4-vinylbenzenesulfonate]
The CC50 at 24 h of the first is higher: > 50 µM for the first, 31.8 µM for the second.

First: CN1CCC(OC(=O)C(Oc2ccc(Cl)cc2)Oc2ccc(Cl)cc2)CC1 [Lifibrate]
Second: COc1ccc(C(=O)N2CCCC2=O)cc1 [Aniracetam]
The CC50 at 24 h of the first is lower: 27.6 µM for the first, > 50 µM for the second.

`Cn1c(=O)c2[nH]cnc2n(C)c1=O` [Theophylline] and `CN1C(=O)N(C)C(O)C1O` (centres unmarked) [4,5-Dihydroxy-1,3-dimethylimidazolidin-2-one] cannot be ordered by CC50 at 24 h: > 90 µM for the first, > 90 µM for the second.

`CCCOC(=O)CCCCC(=O)OCCC` [Dipropyl hexanedioate] and `CCOC(=O)CCCCCCCCC(=O)OCC` [Diethyl decanedioate] cannot be ordered by CC50 at 24 h: > 90 µM for the first, > 90 µM for the second.

`C=COCC1CCC(COC=C)CC1` (centres unmarked) [1,4-Bis[(ethenyloxy)methyl]cyclohexane] and `CC1=CC[C@@]23C[C@@H]1C(C)(C)[C@@H]2CC[C@H]3C` [(-)-alpha-Cedrene] cannot be ordered by CC50 at 24 h: > 90 µM for the first, > 90 µM for the second.

First: COc1cc(C=O)cc2c1[C@H](COC(N)=O)[C@]1(OC(C)=O)ON2C[C@H]2[C@@H]1N2C(C)=O [PharmaGSID_48166]
Second: COc1cc(Cl)c(OC)cc1N [2,5-Dimethoxy-4-chloroaniline]
The CC50 at 24 h of the first is lower: 1.23 µM for the first, > 90 µM for the second.

`CC(C)(C)c1ccccc1` [tert-Butylbenzene] and `CC(C)(C)c1nnc(NS(=O)(=O)c2ccccc2)s1` [Glybuzole] cannot be ordered by CC50 at 24 h: > 90 µM for the first, > 50 µM for the second.

`CN(N=O)c1ccccc1` [Nitrosomethylaniline] and `OCCN(CCO)c1ccccc1` [N-Phenyldiethanolamine] cannot be ordered by CC50 at 24 h: > 90 µM for the first, > 90 µM for the second.

`Nc1cccc(Cl)c1` [3-Chloroaniline] and `NC(=O)c1c(Cl)cccc1Cl` [2,6-Dichlorobenzamide] cannot be ordered by CC50 at 24 h: > 90 µM for the first, > 90 µM for the second.

`CCOP(=S)(OCC)Oc1ccc([N+](=O)[O-])cc1` [Parathion] and `O=C(Cl)c1ccccc1[N+](=O)[O-]` [2-Nitrobenzoyl chloride] cannot be ordered by CC50 at 24 h: > 90 µM for the first, > 90 µM for the second.

`COC(=O)C(C)=O` [Methylpyruvate] and `COC(=O)CCCC(=O)O` [5-Methoxy-5-oxopentanoic acid] cannot be ordered by CC50 at 24 h: > 90 µM for the first, > 90 µM for the second.

`CCCCOC(C)=O` [Butyl acetate] and `CCCC(C)C(=O)OCC` (centres unmarked) [Ethyl 2-methylpentanoate] cannot be ordered by CC50 at 24 h: > 90 µM for the first, > 90 µM for the second.

`COc1cc2c(N3CCN(C(=O)Nc4ccc(OC(C)C)cc4)CC3)ncnc2cc1OCCCN1CCCCC1` [Tandutinib] and `COc1cc(Nc2c(C#N)cnc3cc(OCCCN4CCN(C)CC4)c(OC)cc23)c(Cl)cc1Cl` [Bosutinib methanoate] are within 1.5-fold of each other in CC50 at 24 h: 11.4 µM for the first, 8.85 µM for the second.

`CC(C)(C)C(=O)OCOC(=O)[C@@H]1N2C(=O)[C@@H](N=CN3CCCCCC3)[C@H]2SC1(C)C` [Pivmecillinam hydrochloride] and `CC1(C)S[C@@H]2[C@H](NC(=O)C(C(=O)Oc3ccc4c(c3)CCC4)c3ccccc3)C(=O)N2[C@H]1C(=O)O` (some centres unmarked) [Carbenicillin indanyl] cannot be ordered by CC50 at 24 h: > 20 µM for the first, > 50 µM for the second.

`O=C1OC(=O)C2C1C1(Cl)C(Cl)=C(Cl)C2(Cl)C1(Cl)Cl` (centres unmarked) [Chlorendic anhydride] and `O=[N+]([O-])c1cc(Cl)c(Cl)c(Cl)c1` [3,4,5-Trichloronitrobenzene] cannot be ordered by CC50 at 24 h: > 90 µM for the first, > 90 µM for the second.

Going from `Nc1ccc(C(=O)Oc2ccccc2)c(O)c1` [Phenyl 4-aminosalicylate] to `CNCCC(Oc1ccccc1OC)c1ccccc1` (centres unmarked) [Nisoxetine], the CC50 at 24 h falls from > 50 µM to 38.3 µM.

`CCCCN(CCCC)CCCCCCN(CCCC)CCCC` [N,N,N',N'-Tetrabutyl-1,6-hexanediamine] and `CCCCCCCCCCCl` [1-Chlorodecane] cannot be ordered by CC50 at 24 h: > 90 µM for the first, > 90 µM for the second.

`C=CCC=CC` [1,4-Hexadiene] and `C=CC(=O)NCNC(=O)C=C` [N,N'-Methylenebisacrylamide] cannot be ordered by CC50 at 24 h: > 90 µM for the first, > 90 µM for the second.

`CC(C)COC(=O)c1ccccc1C(=O)OCC(C)C` [Diisobutyl phthalate] and `CCCCNS(=O)(=O)c1ccccc1` [N-Butylbenzenesulfonamide] cannot be ordered by CC50 at 24 h: > 90 µM for the first, > 90 µM for the second.

Going from `CC(C)C(=O)OCC(=O)[C@@]12O[C@H](C3CCCCC3)O[C@@H]1C[C@H]1[C@@H]3CCC4=CC(=O)C=C[C@]4(C)[C@H]3[C@@H](O)C[C@@]12C` [Ciclesonide] to `CC1(C)[C@@H](OC(=O)CCC(=O)O)CC[C@]2(C)[C@H]3C(=O)C=C4[C@@H]5C[C@@](C)(C(=O)O)CC[C@]5(C)CC[C@@]4(C)[C@]3(C)CC[C@@H]12` [Carbenoxolone sodium], the CC50 at 24 h rises from 17.7 µM to > 20 µM.

`OCCC(F)(F)C(F)(F)C(F)(F)C(F)(F)C(F)(F)C(F)(F)F` [6:2 Fluorotelomer alcohol] and `O=C(NC(=O)c1c(F)cccc1F)Nc1ccc(OC(F)(F)C(F)OC(F)(F)F)c(Cl)c1` (centres unmarked) [Novaluron] cannot be ordered by CC50 at 24 h: > 90 µM for the first, > 50 µM for the second.

Compared with `CN1CCN(C2=Nc3ccccc3Cc3ccccc32)CC1` [Perlapine], `CC(C)(c1ccccc1)c1ccc(Nc2ccc(C(C)(C)c3ccccc3)cc2)cc1` [4-(2-Phenylpropan-2-yl)-N-[4-(2-phenylpropan-2-yl)phenyl]aniline] is higher in CC50 at 24 h: 25.9 µM for the first, > 90 µM for the second.

Compared with `CN(C(=O)CO)c1c(I)c(C(=O)NCC(O)CO)c(I)c(C(=O)NCC(O)CO)c1I` (centres unmarked) [Iomeprol], `CCCCCCNC(=O)n1cc(F)c(=O)[nH]c1=O` [Carmofur] is lower in CC50 at 24 h: > 50 µM for the first, 8.69 µM for the second.

First: O=C1C(O)=C(O)C(=O)C(O)=C1O [Tetroquinone]
Second: COC1=C(OC)C(=O)C(CCCCCCCCCCO)=C(C)C1=O [Idebenone]
The CC50 at 24 h of the first is higher: > 50 µM for the first, 35.2 µM for the second.

`COC(=O)CCS` [3-Mercaptopropionic acid methyl ester] and `CCOC(=O)/C=C/C(=O)OCC` [Diethyl (2E)-but-2-enedioate] cannot be ordered by CC50 at 24 h: > 90 µM for the first, > 90 µM for the second.

`On1nnc2ccccc21` [1-Hydroxybenzotriazole] and `CN1C(=O)CC[C@H]1c1cccnc1` [Cotinine] cannot be ordered by CC50 at 24 h: > 90 µM for the first, > 90 µM for the second.

First: Cc1occc1SSc1ccoc1C [Bis(2-methyl-3-furyl)disulfide]
Second: CC(=O)Nc1ccc(NC(=S)NC(=O)c2ccc(C(C)(C)C)cc2)cc1 [Tenovin-1]
The CC50 at 24 h of the first is higher: > 90 µM for the first, 7.56 µM for the second.

Compared with `NC(=O)C(=O)N/N=C/c1ccc([N+](=O)[O-])o1` [Nifuraldezone], `CCCCCCCCCCCC(=O)OC[C@@H](O)[C@H]1OC[C@H](O)[C@H]1O` [Sorbitan monododecanoate] is higher in CC50 at 24 h: 24.8 µM for the first, > 50 µM for the second.

First: C=C1/C(=C\C=C2/CCC[C@]3(C)[C@@H]([C@H](C)/C=C/[C@H](C)C(C)C)CC[C@@H]23)C[C@@H](O)C[C@@H]1O [1-alpha-Hydroxyergocalciferol]
Second: CC[C@@H]1/C=C(\C)C[C@H](C)C[C@H](OC)[C@H]2O[C@@](O)(C(=O)C(=O)N3CCCC[C@H]3C(=O)O[C@H](/C(C)=C/[C@@H]3CC[C@H](Cl)[C@H](OC)C3)[C@H](C)[C@@H](O)CC1=O)[C@H](C)C[C@@H]2OC [Pimecrolimus]
The CC50 at 24 h of the first is lower: 37.5 µM for the first, > 50 µM for the second.

`FC(F)OC(Cl)C(F)(F)F` (centres unmarked) [Isoflurane] and `CNC(=S)N(C)C` [1,1,3-Trimethyl-2-thiourea] cannot be ordered by CC50 at 24 h: > 90 µM for the first, > 90 µM for the second.

Same assay, conditions: rat, gh3-tre-luc cells, AC50 (uM) modified / 1000, Tox21_110001=Tox21_110991; viability, 1 nM T3 present, 24 h

With `CCC1(c2ccccc2)C(=O)N(COC)C(=O)N(COC)C1=O` [Eterobarb] the CC50 at 24 h was > 50 µM.

Same assay, conditions: rat, gh3-tre-luc cells, AC50 (uM) modified / 1000, Tox21_110001=Tox21_112752; viability, 1 nM T3 present, 24 h

For `CCC1(CC)C(=O)NC(=O)N(C)C1=O` [Metharbital], the CC50 at 24 h was > 50 µM.

Same assay, conditions: rat, gh3-tre-luc cells, AC50 (uM) modified / 1000, Tox21_110001=Tox21_112824; viability, 1 nM T3 present, 24 h

In the case of `COc1ccc2c3c1O[C@H]1[C@@H](O)C=C[C@H]4[C@@H](C2)NCC[C@@]341` [N-Norcodeine hydrochloride], the CC50 at 24 h was > 100 µM.

Same assay, conditions: rat, gh3-tre-luc cells, AC50 (uM) modified / 1000, Tox21_110001=Tox21_112872; viability, 1 nM T3 present, 24 h

With `CCN(CC)C(=O)[C@@H]1C=C2c3cccc4[nH]cc(c34)C[C@H]2N(C)C1` [Lysergide] the CC50 at 24 h was > 200 µM.

Same assay, conditions: rat, gh3-tre-luc cells, AC50 (uM) modified / 1000, Tox21_110001=Tox21_113508; viability, 1 nM T3 present, 24 h

In the case of `CCN(CC)C(=O)[C@@H]1C=C2c3cccc4[nH]cc(c34)C[C@H]2N(C)C1` [Lysergide], the CC50 at 24 h was > 50 µM.

Same assay, conditions: rat, gh3-tre-luc cells, AC50 (uM) modified / 1000, Tox21_110001=Tox21_200060; viability, 1 nM T3 present, 24 h

In the case of `CC(=O)C(C)(C)C` [3,3-Dimethyl-2-butanone], the CC50 at 24 h was > 100 µM.

Same assay, conditions: rat, gh3-tre-luc cells, AC50 (uM) modified / 1000, Tox21_110001=Tox21_200321; viability, 1 nM T3 present, 24 h

For `O=C(O)c1cc(Cl)ccc1Cl` [2,5-Dichlorobenzoic acid], the CC50 at 24 h was > 90 µM.

Same assay, conditions: rat, gh3-tre-luc cells, AC50 (uM) modified / 1000, Tox21_110001=Tox21_201562; viability, 1 nM T3 present, 24 h

For `CNC(=O)Oc1cccc2c1OC(C)(C)O2` [Bendiocarb], the CC50 at 24 h was > 90 µM.

Same assay, conditions: rat, gh3-tre-luc cells, AC50 (uM) modified / 1000, Tox21_110001=Tox21_201790; viability, 1 nM T3 present, 24 h

For `CCCCCCCCCCCCCl` [1-Chlorododecane], the CC50 at 24 h was > 90 µM.

Same assay, conditions: rat, gh3-tre-luc cells, AC50 (uM) modified / 1000, Tox21_110001=Tox21_300792; viability, 1 nM T3 present, 24 h

For `COC(=O)Cc1ccccc1` [Methyl phenylacetate], the CC50 at 24 h was > 90 µM.

Same assay, conditions: rat, gh3-tre-luc cells, AC50 (uM) modified / 1000, Tox21_110001=Tox21_301421; viability, 1 nM T3 present, 24 h

With `CCOP(=S)(OCC)SCn1nnc2ccccc2c1=O` [Azinphos-ethyl] the CC50 at 24 h was > 90 µM.

Same assay, conditions: rat, gh3-tre-luc cells, AC50 (uM) modified / 1000, Tox21_110001=Tox21_302420; viability, 1 nM T3 present, 24 h

For `CNC(=O)Oc1ccccc1C1OCCO1` [Dioxacarb], the CC50 at 24 h was > 90 µM.

Same assay, conditions: rat, gh3-tre-luc cells, AC50 (uM) modified / 1000, Tox21_110001=Tox21_303401; viability, 1 nM T3 present, 24 h

With `O=P(O)(Oc1ccccc1)Oc1ccccc1` [Diphenyl phosphate] the CC50 at 24 h was > 90 µM.
